Reference: publication PMC8213057, “Targeting ALK2: An Open Science Approach to Developing Therapeutics for the Treatment of Diffuse Intrinsic Pontine Glioma” (Journal of Medicinal Chemistry, 2020)
Where “and” joins values, the source holds several entries; their conditions need not be identical. Equal values may be shown once.

Tests used:
PAK3 = PAK3 (Homo sapiens, UniProt O75914); experiment: biochemical; settings: read-out: % enzyme activity, 1 μM; Run 1, Run 2
CK1g2 = CK1g2 (Homo sapiens, UniProt P78368); settings: 1 μM; Run 1, Run 2
HGK/MAP4K4 = biological target: T1, HGK/MAP4K4 (Homo sapiens, UniProt O95819); experiment: 375-member kinase panel; format: biochemical; settings: Run 1, Run 2; for % enzyme activity: 1 μM; for remaining activity at 1 µM: read-out: % enzyme activity, 1 μM
T1 construct: purchased Reaction Biology Corporation

CDK2/Cyclin A1 = CDK2/Cyclin A1 (Homo sapiens, UniProt P24941); experiment: biochemical; settings: read-out: % enzyme activity, 1 μM; Run 1, Run 2
STK38L/NDR2 = STK38L/NDR2 (Homo sapiens, UniProt Q9Y2H1); experiment: biochemical; settings: read-out: % enzyme activity, 1 μM; Run 1, Run 2
ULK3 = biological target: T2, ULK3 (Homo sapiens, UniProt Q6PHR2); experiment: biochemical; settings: read-out: % enzyme activity, 1 μM; Run 1, Run 2
T2 sequence (Q6PHR2 1-472): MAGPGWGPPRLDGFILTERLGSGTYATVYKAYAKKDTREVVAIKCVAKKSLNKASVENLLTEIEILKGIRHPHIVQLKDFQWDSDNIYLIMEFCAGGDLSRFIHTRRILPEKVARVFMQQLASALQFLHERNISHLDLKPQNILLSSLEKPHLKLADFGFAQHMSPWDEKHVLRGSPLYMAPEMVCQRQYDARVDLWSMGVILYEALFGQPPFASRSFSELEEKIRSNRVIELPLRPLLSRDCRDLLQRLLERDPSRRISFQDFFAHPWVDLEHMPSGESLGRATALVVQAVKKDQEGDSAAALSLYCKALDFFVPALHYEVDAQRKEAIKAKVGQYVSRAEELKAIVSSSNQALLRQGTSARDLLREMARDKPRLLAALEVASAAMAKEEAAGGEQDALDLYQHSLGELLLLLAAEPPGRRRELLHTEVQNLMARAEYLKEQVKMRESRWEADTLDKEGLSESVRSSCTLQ

GSK3a = GSK3a (Homo sapiens, UniProt P49840); settings: 1 μM; Run 1, Run 2
EPHA1 = biological target: T3, EPHA1 (Homo sapiens, UniProt P21709); settings: 1 μM; Run 1, Run 2
T3 sequence (P21709 26-976): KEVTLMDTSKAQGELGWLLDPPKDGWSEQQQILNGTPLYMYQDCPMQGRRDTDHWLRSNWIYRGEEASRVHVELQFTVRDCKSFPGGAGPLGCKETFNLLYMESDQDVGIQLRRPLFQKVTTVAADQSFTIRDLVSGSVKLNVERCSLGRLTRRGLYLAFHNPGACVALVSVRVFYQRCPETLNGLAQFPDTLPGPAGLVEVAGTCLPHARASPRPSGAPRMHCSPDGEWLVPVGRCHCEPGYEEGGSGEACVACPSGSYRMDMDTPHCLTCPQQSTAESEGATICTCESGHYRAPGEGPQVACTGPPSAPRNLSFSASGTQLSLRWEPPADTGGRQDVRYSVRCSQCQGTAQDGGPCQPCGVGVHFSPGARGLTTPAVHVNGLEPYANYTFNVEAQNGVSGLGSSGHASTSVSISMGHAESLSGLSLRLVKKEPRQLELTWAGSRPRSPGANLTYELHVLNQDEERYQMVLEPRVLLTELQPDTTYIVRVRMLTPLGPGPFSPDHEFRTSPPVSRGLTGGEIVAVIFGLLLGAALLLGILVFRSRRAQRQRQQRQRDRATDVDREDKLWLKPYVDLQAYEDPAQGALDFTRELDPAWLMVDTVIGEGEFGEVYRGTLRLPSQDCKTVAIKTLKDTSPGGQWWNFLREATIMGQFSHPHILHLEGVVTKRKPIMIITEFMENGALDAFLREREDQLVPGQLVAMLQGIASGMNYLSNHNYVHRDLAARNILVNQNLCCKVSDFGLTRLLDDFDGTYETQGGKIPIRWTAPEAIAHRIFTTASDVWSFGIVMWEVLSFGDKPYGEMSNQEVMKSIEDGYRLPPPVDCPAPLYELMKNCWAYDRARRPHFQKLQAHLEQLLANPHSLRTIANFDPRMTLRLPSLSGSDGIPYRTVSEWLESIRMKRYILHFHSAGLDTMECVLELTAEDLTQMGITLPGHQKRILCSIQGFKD

PAK5 = PAK5 (Homo sapiens, UniProt Q9P286); experiment: biochemical; settings: read-out: % enzyme activity, 1 μM; Run 1, Run 2
PKAcb = PKAcb (Homo sapiens, UniProt P22694); experiment: biochemical; settings: read-out: % enzyme activity, 1 μM; Run 1, Run 2
AKT1 = AKT1 (Homo sapiens, UniProt P31749); settings: 1 μM; Run 1, Run 2
PDK1/PDPK1 = biological target: T4, PDK1/PDPK1 (Homo sapiens, UniProt O15530); experiment: biochemical; settings: read-out: % enzyme activity, 1 μM; Run 1, Run 2
T4 sequence (O15530 1-556): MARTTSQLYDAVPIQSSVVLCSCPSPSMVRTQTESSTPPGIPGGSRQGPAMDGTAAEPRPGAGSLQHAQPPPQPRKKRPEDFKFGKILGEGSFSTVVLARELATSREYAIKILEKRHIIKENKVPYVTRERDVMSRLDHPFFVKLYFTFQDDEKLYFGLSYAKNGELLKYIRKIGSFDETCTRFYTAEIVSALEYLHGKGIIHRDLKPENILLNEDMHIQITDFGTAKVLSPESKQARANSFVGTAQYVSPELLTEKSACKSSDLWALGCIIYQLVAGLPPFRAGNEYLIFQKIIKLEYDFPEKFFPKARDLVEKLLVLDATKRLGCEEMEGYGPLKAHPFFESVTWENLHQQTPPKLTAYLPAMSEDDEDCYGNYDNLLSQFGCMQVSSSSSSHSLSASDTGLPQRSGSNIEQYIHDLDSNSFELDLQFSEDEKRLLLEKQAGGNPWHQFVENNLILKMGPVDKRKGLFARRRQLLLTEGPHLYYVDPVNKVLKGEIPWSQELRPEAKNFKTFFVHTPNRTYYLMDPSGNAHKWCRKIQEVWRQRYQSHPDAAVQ

T1 sequence (O95819 whole entry): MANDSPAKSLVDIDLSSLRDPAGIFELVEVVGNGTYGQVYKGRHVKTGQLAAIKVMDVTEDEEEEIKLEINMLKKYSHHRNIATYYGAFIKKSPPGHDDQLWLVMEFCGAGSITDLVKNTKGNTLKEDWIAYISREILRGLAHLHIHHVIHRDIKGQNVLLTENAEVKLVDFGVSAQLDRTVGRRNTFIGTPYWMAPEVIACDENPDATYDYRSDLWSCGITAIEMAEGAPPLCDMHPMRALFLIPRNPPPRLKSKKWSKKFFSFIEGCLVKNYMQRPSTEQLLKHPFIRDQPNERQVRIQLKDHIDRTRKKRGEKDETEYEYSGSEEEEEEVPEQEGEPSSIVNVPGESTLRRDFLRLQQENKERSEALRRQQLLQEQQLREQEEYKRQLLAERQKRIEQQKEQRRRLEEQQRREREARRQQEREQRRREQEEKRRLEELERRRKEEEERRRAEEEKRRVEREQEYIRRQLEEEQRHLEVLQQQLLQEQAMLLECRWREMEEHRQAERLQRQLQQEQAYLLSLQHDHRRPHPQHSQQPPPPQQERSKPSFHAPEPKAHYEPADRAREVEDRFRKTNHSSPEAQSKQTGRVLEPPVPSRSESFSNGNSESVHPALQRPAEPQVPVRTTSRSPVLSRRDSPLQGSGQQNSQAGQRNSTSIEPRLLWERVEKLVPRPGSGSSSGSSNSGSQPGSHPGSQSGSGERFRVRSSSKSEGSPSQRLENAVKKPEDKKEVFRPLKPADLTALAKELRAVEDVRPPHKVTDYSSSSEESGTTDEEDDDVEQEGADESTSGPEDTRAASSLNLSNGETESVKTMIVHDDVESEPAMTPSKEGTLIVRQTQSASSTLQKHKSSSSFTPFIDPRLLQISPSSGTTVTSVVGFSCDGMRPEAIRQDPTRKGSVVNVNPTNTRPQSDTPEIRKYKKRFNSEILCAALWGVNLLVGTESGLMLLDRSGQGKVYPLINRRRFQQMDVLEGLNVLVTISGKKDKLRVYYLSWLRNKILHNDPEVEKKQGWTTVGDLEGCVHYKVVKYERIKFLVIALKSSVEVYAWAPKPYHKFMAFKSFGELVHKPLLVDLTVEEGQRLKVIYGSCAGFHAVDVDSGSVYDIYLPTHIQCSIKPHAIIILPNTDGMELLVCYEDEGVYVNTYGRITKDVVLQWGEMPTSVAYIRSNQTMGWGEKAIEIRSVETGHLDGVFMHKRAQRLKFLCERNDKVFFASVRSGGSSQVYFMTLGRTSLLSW
Chain of PAK3 (O75914 whole entry): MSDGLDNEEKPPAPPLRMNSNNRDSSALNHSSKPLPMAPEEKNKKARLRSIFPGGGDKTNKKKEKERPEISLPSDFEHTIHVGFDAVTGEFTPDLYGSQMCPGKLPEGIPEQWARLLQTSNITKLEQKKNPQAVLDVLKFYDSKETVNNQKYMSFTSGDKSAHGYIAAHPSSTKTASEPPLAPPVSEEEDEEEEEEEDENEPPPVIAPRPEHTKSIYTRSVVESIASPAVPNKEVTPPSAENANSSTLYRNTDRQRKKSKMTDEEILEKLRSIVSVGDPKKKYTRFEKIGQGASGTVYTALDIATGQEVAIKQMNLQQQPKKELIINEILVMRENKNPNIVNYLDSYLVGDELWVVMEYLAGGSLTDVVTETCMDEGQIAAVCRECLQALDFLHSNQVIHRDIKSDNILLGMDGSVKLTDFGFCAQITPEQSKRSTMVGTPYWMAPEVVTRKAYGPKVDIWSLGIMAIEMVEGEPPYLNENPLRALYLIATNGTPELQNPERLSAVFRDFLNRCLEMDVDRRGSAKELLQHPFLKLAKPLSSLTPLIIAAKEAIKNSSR
Chain of AKT1 (P31749 whole entry): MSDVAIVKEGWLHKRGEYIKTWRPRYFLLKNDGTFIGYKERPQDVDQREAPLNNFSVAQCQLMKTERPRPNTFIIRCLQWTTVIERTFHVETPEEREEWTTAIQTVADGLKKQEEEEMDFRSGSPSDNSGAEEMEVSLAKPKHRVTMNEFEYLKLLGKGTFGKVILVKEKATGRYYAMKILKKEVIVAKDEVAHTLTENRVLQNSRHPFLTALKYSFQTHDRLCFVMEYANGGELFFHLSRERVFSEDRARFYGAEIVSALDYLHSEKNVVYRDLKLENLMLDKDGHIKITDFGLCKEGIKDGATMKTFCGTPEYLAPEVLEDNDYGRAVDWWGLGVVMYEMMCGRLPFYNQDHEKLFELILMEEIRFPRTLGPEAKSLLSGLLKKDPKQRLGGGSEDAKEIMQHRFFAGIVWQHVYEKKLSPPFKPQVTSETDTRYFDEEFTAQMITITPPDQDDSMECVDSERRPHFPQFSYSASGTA
Chain of GSK3a (P49840 whole entry): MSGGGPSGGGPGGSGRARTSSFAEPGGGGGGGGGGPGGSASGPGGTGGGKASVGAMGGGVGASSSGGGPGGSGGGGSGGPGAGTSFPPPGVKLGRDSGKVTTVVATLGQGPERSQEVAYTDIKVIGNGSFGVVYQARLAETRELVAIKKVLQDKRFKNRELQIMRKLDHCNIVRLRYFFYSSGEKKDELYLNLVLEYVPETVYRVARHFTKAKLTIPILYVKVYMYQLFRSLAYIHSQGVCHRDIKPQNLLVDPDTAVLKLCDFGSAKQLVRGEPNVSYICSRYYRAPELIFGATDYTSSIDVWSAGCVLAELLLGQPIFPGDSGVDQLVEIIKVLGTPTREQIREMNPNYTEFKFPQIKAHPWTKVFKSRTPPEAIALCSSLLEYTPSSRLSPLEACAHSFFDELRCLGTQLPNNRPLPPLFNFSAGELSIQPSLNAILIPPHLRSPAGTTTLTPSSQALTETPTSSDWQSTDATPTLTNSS
Chain of STK38L/NDR2 (Q9Y2H1 whole entry): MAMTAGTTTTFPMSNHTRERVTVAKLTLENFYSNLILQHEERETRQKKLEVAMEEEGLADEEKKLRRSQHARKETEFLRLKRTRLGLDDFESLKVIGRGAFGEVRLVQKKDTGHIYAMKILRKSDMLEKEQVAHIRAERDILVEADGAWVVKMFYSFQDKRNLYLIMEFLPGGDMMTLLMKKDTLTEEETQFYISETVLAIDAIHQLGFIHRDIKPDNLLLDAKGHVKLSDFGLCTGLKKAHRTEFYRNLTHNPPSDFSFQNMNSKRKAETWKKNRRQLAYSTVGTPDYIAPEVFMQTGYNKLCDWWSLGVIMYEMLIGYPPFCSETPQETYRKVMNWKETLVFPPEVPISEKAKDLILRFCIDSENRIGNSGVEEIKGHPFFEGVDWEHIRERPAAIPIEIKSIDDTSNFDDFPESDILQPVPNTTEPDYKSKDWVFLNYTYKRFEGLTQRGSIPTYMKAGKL
Chain of PAK5 (Q9P286 whole entry): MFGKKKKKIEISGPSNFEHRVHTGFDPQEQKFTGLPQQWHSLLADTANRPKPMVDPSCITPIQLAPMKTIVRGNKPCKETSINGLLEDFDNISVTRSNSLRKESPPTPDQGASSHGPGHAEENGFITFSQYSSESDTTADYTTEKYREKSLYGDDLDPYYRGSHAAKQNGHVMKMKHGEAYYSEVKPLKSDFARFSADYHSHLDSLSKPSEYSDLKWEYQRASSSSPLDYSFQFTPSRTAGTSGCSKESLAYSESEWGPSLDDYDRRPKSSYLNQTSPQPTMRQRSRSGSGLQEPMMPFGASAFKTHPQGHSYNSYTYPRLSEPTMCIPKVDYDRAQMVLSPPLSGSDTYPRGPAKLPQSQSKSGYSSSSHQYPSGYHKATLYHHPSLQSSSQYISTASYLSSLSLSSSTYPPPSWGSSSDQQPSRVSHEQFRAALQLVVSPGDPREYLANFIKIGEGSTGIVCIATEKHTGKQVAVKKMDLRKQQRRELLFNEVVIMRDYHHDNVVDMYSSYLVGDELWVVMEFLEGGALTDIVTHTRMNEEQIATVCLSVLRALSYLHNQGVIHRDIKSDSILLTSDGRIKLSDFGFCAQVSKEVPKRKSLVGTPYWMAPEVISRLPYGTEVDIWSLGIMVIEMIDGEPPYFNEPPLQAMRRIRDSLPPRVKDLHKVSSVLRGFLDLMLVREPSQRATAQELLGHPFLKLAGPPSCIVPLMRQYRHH
Chain of CK1g2 (P78368 whole entry): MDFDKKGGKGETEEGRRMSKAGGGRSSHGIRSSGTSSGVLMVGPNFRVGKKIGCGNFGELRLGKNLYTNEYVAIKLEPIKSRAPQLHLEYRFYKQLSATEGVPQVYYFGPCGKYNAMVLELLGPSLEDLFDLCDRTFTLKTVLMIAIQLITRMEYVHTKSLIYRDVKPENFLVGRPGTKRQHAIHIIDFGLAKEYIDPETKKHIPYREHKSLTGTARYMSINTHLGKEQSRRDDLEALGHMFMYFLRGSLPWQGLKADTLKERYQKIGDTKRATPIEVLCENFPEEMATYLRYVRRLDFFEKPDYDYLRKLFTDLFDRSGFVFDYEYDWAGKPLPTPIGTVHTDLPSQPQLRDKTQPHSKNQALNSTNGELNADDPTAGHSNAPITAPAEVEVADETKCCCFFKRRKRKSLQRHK

Row | Structure (SMILES) | remaining activity at 1 µM (PAK3) [%] | % enzyme activity (CK1g2) [%] | % enzyme activity (HGK/MAP4K4) [%] | remaining activity at 1 µM (HGK/MAP4K4) [%] | remaining activity at 1 µM (CDK2/Cyclin A1) [%] | remaining activity at 1 µM (STK38L/NDR2) [%] | remaining activity at 1 µM (ULK3) [%] | % enzyme activity at 1 μM (NLK) | % enzyme activity (GSK3a) [%] | % enzyme activity (EPHA1) [%] | remaining activity at 1 µM (PAK5) [%] | remaining activity at 1 µM (PKAcb) [%] | % enzyme activity at 1 μM (ALK6/BMPR1B) | % enzyme activity (AKT1) [%] | remaining activity at 1 µM (PDK1/PDPK1) [%]
1 | COc1cc(-c2cncc(-c3ccc(N4CCN(C)CC4)cc3)c2C)cc(F)c1C(N)=O [Compound 26a, 2-Fluoro-6-methoxy-4-(4-methyl-5-(4-(4-methylpiperazin-1-yl)phenyl)pyridin-3-yl)benzamide] | 89.5 | 75.72 | 20.97 | 22 | 99.9 | 99.4 | 91.5 | 22% and 20.8% | 100.80 | 96.36 | 94.6 | 96.2 | 18.2% and 17% | 102.39 | 94.3
2 | COc1cc(-c2cncc(-c3ccc(N4C[C@@H](C)N(C)[C@@H](C)C4)cc3)c2C)cc(F)c1C(N)=O [Compound 26c, 2-Fluoro-6-methoxy-4-(4-methyl-5-(4-((3R,5S)-3,4,5-trimethylpiperazin-1-yl)phenyl)pyridin-3-yl)benzamide] | 125 | 85.61 | 28.35 | 30.6 | 98.2 | 104 | 98.8 | 50.4% and 47.7% | 101.44 | 89.93 | 97.3 | 97.9 | 30.2% and 30.1% | 104.50 | 95.9
